Measurements reported in BindingDB's records for doi:10.1016/j.bmcl.2018.07.042 (Takeda Pharmaceutical, 2018).

Test: Inhibition of human CCR6 expressed in CHO cells assessed as decrease in human CCL20-dependent cell migration incubated for 4 hrs by Diff-Quik staining based assay

**Q.** With `Cc1ccc(S(=O)(=O)N2CCC(Nc3ccc(C#N)cn3)CC2)cc1` as the molecule, how does the IC50 read?
**A.** The IC50 was 1400 nM.

**Q.** Which IC50 does the source give for `N#Cc1ccc(NC2CCN(S(=O)(=O)c3ccc(-c4ccccc4)cc3)CC2)nc1` here?
**A.** Its IC50 is 240 nM.
